{"source": "patent US20140057311A1", "about": "“Device For High Throughput Investigations Of Multi-Cellular Interactions” (priority 2010, published 2014)", "tested_on": "MDA-MB 231 human breast carcinoma cells", "assay": "Tumor cell migration direction under interstitial flow in 3D collagen I gel", "format": "cell-based", "settings": "Src kinase inhibited with PP2", "excerpt": "Cell culture system design and verification of interstitial flow field. A microfluidic cell culture system to culture breast cancer cells (MDA-MB 231) in a 3D collagen I matrix and to subject these cells to a controlled level of interstitial flow was employed. The system consists of two channels separated by a region containing single cells suspended in collagen I gel (FIG. 16A). By applying a hydrostatic pressure gradient across the gel region, a consistent flow field is generated. FEM software was used to solve Brinkman's equation for flow through porous medium for our system geometry (FIG. 16B). […] From the bead tracking data, the hydraulic permeability of 2 mg/ml collagen I gel was determined to be 1.55×10-13 m2, similar to previously published values.\nInterstitial flow induced a directional bias in cellular migration. […] To quantify the migration direction of cell populations, two metrics are presented. […] To determine directional bias of migration along streamlines, a “directional migration metric” was computed that scored cells with a +1 if they migrated in the direction of flow and a −1 if they migrated against the flow (FIG. 17E). […]\nCells were incubated overnight at 37° C. […] Devices were allowed to reach thermal equilibrium at 37° C. before imaging (see Supplementary Methods in SI Appendix for details on imaging and data quantification). […]", "data": [{"smiles": "CC(C)(C)n1nc(-c2ccc(Cl)cc2)c2c(N)ncnc21", "note": "[PP2]", "values": [{"measurement": "direction of cell migration under interstitial flow", "result": "cells migrated randomly, with no biased migration upstream or downstream"}]}]}
